Laboratory results: PubChem BioAssay (NCI)
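Abbreviation: GI50, concentration required for 50% inhibition of growth. TGI: concentration producing complete growth inhibition.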

How the values were obtained:
Test in all cases: DTP human tumour cell line panel, 384-well format
[1] = test system: 786-0 renal
[2] = test system: A498 renal
[3] = test system: A549 NSCLC
[4] = test system: ACHN renal
[5] = test system: BT-549 breast
[6] = test system: CAKI-1 renal
[7] = test system: CCRF-CEM leukemia
[8] = test system: COLO 205 colon
[9] = test system: DU-145 prostate
[10] = test system: EKVX NSCLC
[11] = test system: HCC-2998 colon
[12] = test system: HCT-116 colon
[13] = test system: HCT-15 colon
[14] = test system: HL-60(TB) leukemia
[15] = test system: HOP-62 NSCLC
[16] = test system: HOP-92 NSCLC
[17] = test system: HS 578T breast
[18] = test system: HT29 colon
[19] = test system: IGROV1 ovarian
[20] = test system: K-562 leukemia
[21] = test system: KM12 colon
[22] = test system: LOX IMVI melanoma
[23] = test system: M14 melanoma
[24] = test system: MALME-3M melanoma
[25] = test system: MCF7 breast
[26] = test system: MDA-MB-231 breast
[27] = test system: MDA-MB-435 melanoma
[28] = test system: MDA-MB-468 breast
[29] = test system: MOLT-4 leukemia
[30] = test system: NCI-H226 lung
[31] = test system: NCI-H23 lung
[32] = test system: NCI-H322M lung
[33] = test system: NCI-H460 NSCLC
[34] = test system: NCI-H522 lung
[35] = test system: NCI/ADR-RES ovarian
[36] = test system: OVCAR-3 ovarian
[37] = test system: OVCAR-4 ovarian
[38] = test system: OVCAR-8 ovarian
[39] = test system: PC-3 prostate
[40] = test system: RPMI-8226 leukemia
[41] = test system: RXF 393 renal
[42] = test system: SF-268 CNS
[43] = test system: SF-295 CNS
[44] = test system: SF-539 CNS
[45] = test system: SK-MEL-28 melanoma
[46] = test system: SK-MEL-5 melanoma
[47] = test system: SK-OV-3 ovarian
[48] = test system: SN12C renal
[49] = test system: SNB-19 CNS
[50] = test system: SNB-75 CNS
[51] = test system: SR leukemia
[52] = test system: SW-620 colon
[53] = test system: T-47D breast
[54] = test system: TK-10 renal
[55] = test system: U251 glioblastoma
[56] = test system: UACC-257 melanoma
[57] = test system: UACC-62 melanoma
[58] = test system: UO-31 renal

With Cc1ccccc1C(C(=O)NC1CCCCC1)N(C(=O)CNc1ccc(C#N)cc1)c1cccc(F)c1 (stereo unspecified) the GI50 [1] was 3.83 µM, the TGI [1] was 20.7 µM and the GI50 [2] was 6.17 µM. The TGI [2] was 27.2 µM, the GI50 [3] was 25 µM and the TGI [3] was over 100 µM. It also gave a GI50 [4] of 11.6 µM, a TGI [4] of over 100 µM and a GI50 [5] of 7.62 µM. For the same compound, the TGI [5] was 52.7 µM, the GI50 [6] was 4.93 µM and the TGI [6] was 22.7 µM. For the same compound, the GI50 [7] was 98.4 µM, the TGI [7] was over 100 µM and the GI50 [8] was 3.04 µM. The TGI [8] was 20.7 µM, the GI50 [9] was 12.6 µM and the TGI [9] was over 100 µM. The GI50 [10] was 11.6 µM, the TGI [10] was over 100 µM and the GI50 [11] was 1.48 µM. The TGI [11] was 11.2 µM, the GI50 [12] was 4.46 µM and the TGI [12] was 33.9 µM. For the same compound, the GI50 [13] was 65.1 µM, the TGI [13] was over 100 µM and the GI50 [14] was 1.15 µM. For the same compound, the TGI [14] was 3.91 µM, the GI50 [15] was 6.88 µM and the TGI [15] was 45.3 µM. It also gave a GI50 [16] of 3.45 µM, a TGI [16] of 17 µM and a GI50 [17] of 3.36 µM. For the same compound, the TGI [17] was 20.1 µM, the GI50 [18] was 5.56 µM and the TGI [18] was over 100 µM. The GI50 [19] was 8.13 µM, the TGI [19] was 88.7 µM and the GI50 [20] was 3.25 µM. The TGI [20] was over 100 µM, the GI50 [21] was 7.76 µM and the TGI [21] was 89.6 µM. The GI50 [22] was 24.7 µM, the TGI [22] was over 100 µM and the GI50 [23] was 2.56 µM. For the same compound, the TGI [23] was 13.1 µM, the GI50 [24] was 0.713 µM and the TGI [24] was 2.59 µM. The GI50 [25] was 14.6 µM, the TGI [25] was over 100 µM and the GI50 [26] was 5.23 µM. It also gave a TGI [26] of 29.4 µM, a GI50 [27] of 8.14 µM and a TGI [27] of over 100 µM. For the same compound, the GI50 [28] was 51.7 µM, the TGI [28] was over 100 µM and the GI50 [29] was over 100 µM. For the same compound, the TGI [29] was over 100 µM, the GI50 [30] was 4.84 µM and the TGI [30] was 27.2 µM. It also gave a GI50 [31] of 4.65 µM, a TGI [31] of 24.4 µM and a GI50 [32] of 13.4 µM. It also gave a TGI [32] of over 100 µM, a GI50 [33] of 3.86 µM and a TGI [33] of over 100 µM. It also gave a GI50 [34] of 7.86 µM, a TGI [34] of 67.7 µM and a GI50 [35] of 46.9 µM. It also gave a TGI [35] of over 100 µM, a GI50 [36] of 3.58 µM and a TGI [36] of 35.3 µM. For the same compound, the GI50 [37] was 5.82 µM, the TGI [37] was 31.5 µM and the GI50 [38] was 4.15 µM. It also gave a TGI [38] of 58.3 µM, a GI50 [39] of 7.84 µM and a TGI [39] of 56.1 µM. It also gave a GI50 [40] of 8.12 µM, a TGI [40] of over 100 µM and a GI50 [41] of 4.41 µM. The TGI [41] was 24.7 µM, the GI50 [42] was 7.32 µM and the TGI [42] was 55.9 µM. It also gave a GI50 [43] of 15 µM, a TGI [43] of 47.1 µM and a GI50 [44] of 5.6 µM. For the same compound, the TGI [44] was 21.4 µM, the GI50 [45] was 2.49 µM and the TGI [45] was 11.6 µM. It also gave a GI50 [46] of 3.12 µM, a TGI [46] of 17.8 µM and a GI50 [47] of 8.22 µM. The TGI [47] was 40.4 µM, the GI50 [48] was 4.43 µM and the TGI [48] was 66.8 µM. It also gave a GI50 [49] of 3.16 µM, a TGI [49] of 16.6 µM and a GI50 [50] of 2.61 µM. For the same compound, the TGI [50] was 16.2 µM, the GI50 [51] was 1.77 µM and the TGI [51] was 4.61 µM. It also gave a GI50 [52] of 3.4 µM, a TGI [52] of over 100 µM and a GI50 [53] of 7.89 µM. For the same compound, the TGI [53] was over 100 µM, the GI50 [54] was 19 µM and the TGI [54] was over 100 µM. The GI50 [55] was 15.7 µM, the TGI [55] was over 100 µM and the GI50 [56] was 3.77 µM. For the same compound, the TGI [56] was 18.5 µM, the GI50 [57] was 1.58 µM and the TGI [57] was 4.91 µM. It also gave a GI50 [58] of 57.3 µM and a TGI [58] of over 100 µM.
